Tests used:
AVP-V₁ sites = target: T1, AVP-V₁ sites (Rattus norvegicus, UniProt P30560); assay: [³H]AVP radioligand binding, crude membrane preparation of male rat liver (AVP-V₁ sites); settings: for inhibition at 10 µM: 10 µM test compound, % of specific [³H]AVP binding inhibited (liver), read-out: Inhibition Vasopressin V1 % inhibition @ 10; for IC50: 1 nM [³H]AVP, rat liver membranes, 30 min at 30°C, read-out: Inhibition Vasopressin V1 IC50
T1 construct: a crude membrane preparation of male rat liver (AVP-V₁ sites); from tissue; host or cells: male rat liver, crude membrane preparation
Excerpt: (§1) *Inhibition is expressed either as IC₅₀ in µM, or as % inhibition @ a specified concentration of the test compound (µM). The IC₅₀ is the concentration of the text compound which inhibits specific binding by 50%. The % inhibition at a specified concentration of the test compound is that percentage of specific binding which is inhibited by said concentration of said test compound.

AVP-V₂ sites = target: T2, AVP-V₂ sites (Rattus norvegicus, UniProt Q00788); assay: [³H]AVP radioligand binding, crude membrane preparation of male rat kidney medulla (AVP-V₂ sites); settings: for inhibition at 10 µM: 10 µM test compound, % of specific [³H]AVP binding inhibited (kidney), read-out: Inhibition Vasopressin V2 % inhibition @ 10
T2 construct: male rat liver (AVP-V₁ sites) or kidney medulla (AVP-V₂ sites); from tissue; host or cells: male rat kidney medulla, crude membrane preparation
Excerpt: as §1

uterine OT receptors = target: T3, uterine OT receptors (Rattus norvegicus, UniProt P70536); assay: [³H]OT radioligand binding to uterine OT receptors, crude membrane preparation of uteri from DES-treated rats
T3 construct: a crude membrane preparation of uteri; from tissue; host or cells: uterus of DES-treated rats, crude membrane preparation
T3 sequence (P70536 1-388): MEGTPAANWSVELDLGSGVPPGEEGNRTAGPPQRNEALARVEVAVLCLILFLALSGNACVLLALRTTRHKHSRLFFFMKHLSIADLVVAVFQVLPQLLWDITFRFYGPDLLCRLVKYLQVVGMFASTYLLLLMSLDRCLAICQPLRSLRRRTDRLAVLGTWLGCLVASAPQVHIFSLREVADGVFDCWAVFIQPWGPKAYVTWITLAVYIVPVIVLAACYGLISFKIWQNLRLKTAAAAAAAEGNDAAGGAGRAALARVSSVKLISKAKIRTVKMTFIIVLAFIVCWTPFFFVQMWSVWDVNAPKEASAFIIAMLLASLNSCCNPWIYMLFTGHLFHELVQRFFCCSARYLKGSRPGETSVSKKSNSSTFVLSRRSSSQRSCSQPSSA
Protocol: Competition studies were conducted at equilibrium (60 min; 22°C) using 1 nM [³H]OT in the following assay buffer: 50 mM Tris-HCl, 5 mM MgCl₂, and 0.1% BSA, pH 7.4.
as §1

T1 sequence (P30560 whole entry): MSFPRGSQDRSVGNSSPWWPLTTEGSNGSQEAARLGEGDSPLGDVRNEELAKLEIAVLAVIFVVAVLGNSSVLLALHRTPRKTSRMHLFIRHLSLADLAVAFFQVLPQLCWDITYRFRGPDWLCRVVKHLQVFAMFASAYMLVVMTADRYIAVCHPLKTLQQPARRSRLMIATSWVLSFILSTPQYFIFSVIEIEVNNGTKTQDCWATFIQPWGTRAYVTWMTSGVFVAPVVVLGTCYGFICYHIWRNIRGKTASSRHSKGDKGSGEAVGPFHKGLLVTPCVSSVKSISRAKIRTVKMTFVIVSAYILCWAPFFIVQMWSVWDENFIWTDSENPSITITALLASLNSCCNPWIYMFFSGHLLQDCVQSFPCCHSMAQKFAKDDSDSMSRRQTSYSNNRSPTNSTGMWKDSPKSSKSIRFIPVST
T2 sequence (Q00788 whole entry): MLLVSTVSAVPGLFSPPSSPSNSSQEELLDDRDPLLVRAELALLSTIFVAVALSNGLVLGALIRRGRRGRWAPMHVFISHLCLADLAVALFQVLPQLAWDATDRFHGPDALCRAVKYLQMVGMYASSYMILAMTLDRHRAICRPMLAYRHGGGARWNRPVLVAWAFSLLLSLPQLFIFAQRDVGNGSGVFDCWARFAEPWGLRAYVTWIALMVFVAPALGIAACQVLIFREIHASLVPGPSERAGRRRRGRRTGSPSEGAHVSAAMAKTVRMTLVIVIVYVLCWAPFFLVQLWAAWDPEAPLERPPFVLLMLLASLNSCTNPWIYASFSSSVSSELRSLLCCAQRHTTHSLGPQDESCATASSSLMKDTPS

Compound | inhibition at 10 µM (AVP-V₁ sites) | inhibition at 10 µM (AVP-V₂ sites) | IC50 (uterine OT receptors) | further results
CC1(C)[C@@H]2CC[C@@]1(CS(=O)(=O)N1CCC3(C=Cc4ccccc43)CC1)C(=O)C2 [Example 6] | 2% | 3% |  | 
CC1(C)[C@H]2CC[C@]1(CS(=O)(=O)N1CCC3(C=Cc4ccccc43)CC1)C(=O)C2 [Example 7] | 0% | 6% |  | 
CC1(C)[C@@H]2CC[C@@]1(CS(=O)(=O)N1CCC3(C=Cc4ccccc43)CC1)C(O)(c1ccccc1)C2 (stereo partly drawn) [Example 11] |  |  | 490 nM | 
CC1(C)[C@@H]2CC[C@@]1(CS(=O)(=O)N1CCC3(C=Cc4ccccc43)CC1)[C@](C)(O)C2 [Example 13, EXO-(1S)-1′-(((2-HYDROXY-2,7,7-TRIMETHYLBICYCLO-(2.2.1)HEPT-1-YL)METHYL)SULFONYL)SPIRO(1H-INDENE-1,4′-PIPERIDINE)] | 45% | 5% |  | 
CCC1(O)CC2CC[C@]1(CS(=O)(=O)N1CCC3(C=Cc4ccccc43)CC1)C2(C)C (stereo partly drawn) [Example 15] |  |  | 470 nM | IC50 (AVP-V₁ sites): ~9000 nM
COC(=O)C[C@@]1(O)C[C@H]2CC[C@]1(CS(=O)(=O)N1CCC3(C=Cc4ccccc43)CC1)C2(C)C [Example 19, (1S(1.ALPHA.,2.ALPHA.,4.ALPHA.))-2-HYDROXY-7,7-DIMETHYL-1-((SPIRO(1H-INDENE-1,4′-PIPERIDIN)-1′-YLSULFONYL)METHYL)BICYCLO(2.2.1)HEPTANE-2-ACETIC ACID METHYL ESTER] | 54% | 20% |  | 
CC1(C)[C@@H]2CC[C@@]1(CS(=O)(=O)N1CCC3(C=Cc4ccccc43)CC1)[C@@](O)(CC(=O)O)C2 [Example 20, (1S(1.ALPHA.,2.ALPHA.,4.ALPHA.))-2-HYDROXY-7,7-DIMETHYL-1-((SPIRO(1H-INDENE-1,4′-PIPERIDIN)-1′-YLSULFONYL)METHYL)-BICYCLO-(2.2.1)HEPTANE-2-ACETIC ACID] |  |  | 570 nM | IC50 (AVP-V₁ sites): 89000 nM; IC50 (AVP-V₂ sites; 2 nM [³H]AVP, rat kidney medulla membranes, 30 min at 30°C, read-out: Inhibition Vasopressin V2 IC50): 83000 nM
CC1(C)[C@@H]2CC[C@@]1(CS(=O)(=O)N1CCC3(C=Cc4ccccc43)CC1)C(=NO)C2 [Example 27] | 52% | 21% | 490 nM | 
[³H]OT [reference compound] |  |  |  | Kd (uterine OT receptors; radioligand, uterus, read-out: Kd values obtained from saturation binding assay): 0.7 nM

Reference: EP0450761A1, “Spirocyclic oxytocin antagonists” (MERCK & CO. INC., priority 1990, dated 1991)
